The text below walks through data of US20250115597A1, “TYK2 INHIBITORS AND COMPOSITIONS AND METHODS THEREOF” (LYNK PHARMACEUTICALS CO. LTD., priority 2021, published 2025).

Data set [1] addresses T1, Ba/F3-FL-TYK2-P760L cells (Homo sapiens, UniProt P29597, P760L, cells depend on it).
T1 construct: BaF3-FL-T2P760L (nM)
The data set can be described thus: Anti-proliferative assay, Ba/F3-FL-TYK2-P760L cells (Cell-Titer Glo). In kind it is cell-based. Conditions: 72 h, read-out: BaF3-FL-T2P760L IC50. Summed up:
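Compound exposure ran 72 h at 37 °C in 5% CO2 across nine 3-fold concentrations from a 20 μM top dose, added 24 h after seeding 2000 cells/well.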

Data set [2] in a line: Microsomal metabolic stability assay. In kind it is in vitro ADME. The settings on record: pH 7.4, 0.5 mg/mL protein, 1 μM compound. As to the method:
Microsomal Metabolic Stability Assay
Microsomes were pre-incubated with test compound or control compounds for 5 min at 37° C. in 100 mM potassium phosphate buffer, pH 7.4, 1.0 mM EDTA. The reaction was initiated by addition of 15 μL of the NADPH regenerating system to 30 μL of each incubation mixture per time point. The final incubation condition was composed of 0.5 mg/mL microsomal protein, 1 μM test article/positive control, 2 mM NADPH. The 0-minute samples were prepared by addition of a 30 μL aliquot of each incubation mixture to 135 μL quench reagent to precipitate proteins. And then a 15 μL aliquot of the NADPH regenerating system was added. At 5, 15, 30 and 45 minutes, the reaction will be stopped by the addition of cold acetonitrile solution containing internal standard. The samples taken at all time points were centrifuged at 5000×g for 15 minutes. 50 μL of supernatant are taken into 96-well assay plates pre-added with 50 μL ultrapure water, and then analyzed by LC/MS/MS.
Concentrations of test articles, control compounds in the samples were determined by using LC/MS/MS method. Plotting of the chromatograms and peak area integrations are carried out by Analyst (AB Sciex).
n the determination of the in vitro elimination constant (ke) of the control compounds, the analyte/internal standard peak area ratios will be converted to percentage remaining (% Remaining) with the following equation: […]
The slope was measured by the natural logarithm of the percentage of the residual compound and time, T1/2 was calculated according to the following formula.

[3] abbreviates: dog liver microsomes, read-out: Dog LM Clint.
[4] abbreviates: dog liver microsomes, read-out: Dog LM T½.
[5] abbreviates: human liver microsomes, read-out: Human LM Clint.
The mark [6] stands for this setting: human liver microsomes, read-out: Human LM T½.
Where [7] appears, read: rat liver microsomes, read-out: Rat LM Clint.
[8] abbreviates: rat liver microsomes, read-out: Rat LM T½.

Read-outs that look alike come from different tables or passages of the source. Some results are limits rather than exact numbers.

T1 sequence (P29597 whole entry P760L): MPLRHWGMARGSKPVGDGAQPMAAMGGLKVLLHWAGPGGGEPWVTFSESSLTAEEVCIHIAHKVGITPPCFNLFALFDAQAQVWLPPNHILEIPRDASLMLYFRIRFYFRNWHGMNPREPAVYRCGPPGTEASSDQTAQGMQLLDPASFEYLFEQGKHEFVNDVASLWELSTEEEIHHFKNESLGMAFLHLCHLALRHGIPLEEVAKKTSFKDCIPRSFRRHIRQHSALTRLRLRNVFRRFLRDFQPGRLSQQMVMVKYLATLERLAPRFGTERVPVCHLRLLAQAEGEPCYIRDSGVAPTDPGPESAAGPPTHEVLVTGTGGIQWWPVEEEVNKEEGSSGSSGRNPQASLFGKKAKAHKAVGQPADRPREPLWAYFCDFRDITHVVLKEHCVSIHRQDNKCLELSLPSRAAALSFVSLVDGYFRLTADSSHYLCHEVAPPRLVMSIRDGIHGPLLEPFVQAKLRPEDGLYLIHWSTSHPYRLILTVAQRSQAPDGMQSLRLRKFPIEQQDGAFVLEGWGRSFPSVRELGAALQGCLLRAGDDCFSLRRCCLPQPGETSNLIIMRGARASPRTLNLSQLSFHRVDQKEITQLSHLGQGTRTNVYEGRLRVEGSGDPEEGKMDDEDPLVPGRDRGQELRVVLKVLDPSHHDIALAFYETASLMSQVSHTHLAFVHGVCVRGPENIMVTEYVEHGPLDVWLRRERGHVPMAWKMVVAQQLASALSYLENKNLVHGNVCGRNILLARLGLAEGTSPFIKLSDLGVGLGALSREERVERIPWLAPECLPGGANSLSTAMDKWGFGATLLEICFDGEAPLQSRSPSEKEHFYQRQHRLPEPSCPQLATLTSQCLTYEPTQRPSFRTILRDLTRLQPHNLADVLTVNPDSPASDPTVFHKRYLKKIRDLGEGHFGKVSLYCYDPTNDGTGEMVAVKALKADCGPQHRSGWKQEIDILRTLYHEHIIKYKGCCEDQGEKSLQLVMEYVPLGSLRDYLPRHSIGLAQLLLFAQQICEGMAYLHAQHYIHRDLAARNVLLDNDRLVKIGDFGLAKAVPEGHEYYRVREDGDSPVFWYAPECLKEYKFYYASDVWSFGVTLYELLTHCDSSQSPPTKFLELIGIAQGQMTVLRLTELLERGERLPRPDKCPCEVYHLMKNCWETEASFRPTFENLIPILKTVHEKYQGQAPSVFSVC

As for `[2H]C([2H])([2H])NC(=O)c1cnc2cc1Nc1cc(cc(-c3ncc(OC)cn3)c1OC)COCc1nc(ccc1F)N2` [Example 95, 18-Fluoro-10-methoxy-11-(5-methoxypyrimidin-2-yl)-N-(methyl-d3)-15-oxa-2,4,8,21-tetraazatetracyclo[15.3.1.1^{3,7}.1^{9,13}]tricosa-1(20),3,5,7(23),9(22),10,12,17(21),18-nonaene-6-carboxamide], the GI50 in data set [1] turned out to be 53.1 nM. The microsomal CLint at 1 μM in data set [2] (setting [3]), in data set [2] (setting [5]) and in data set [2] (setting [7]) was less than 11.5 µL/min/mg each time. Also, the half-life at 1 μM in data set [2] (setting [4]), in data set [2] (setting [6]) and in data set [2] (setting [8]) was greater than 2 h in each case.

With `[2H]C([2H])([2H])NC(=O)c1cnc(Nc2ccn(C)n2)cc1Nc1ccc2cnn(CC)c2c1OC` [Example 43, 4-((1-Ethyl-7-methoxy-1H-indazol-6-yl)amino)-N-(methyl-d3)-6-((1-methyl-1H-pyrazol-3-yl)amino)nicotinamide], the GI50 in data set [1] was 85.2 nM. In addition, the microsomal CLint at 1 μM in data set [2] (setting [3]) amounted to 30.8 µL/min/mg; in data set [2] (setting [5]), 9.58 µL/min/mg; in data set [2] (setting [7]), 48.5 µL/min/mg. Moreover, the half-life at 1 μM in data set [2] (setting [4]) came to 0.751 h; in data set [2] (setting [6]), 2.41 h; in data set [2] (setting [8]), 0.477 h.

For the molecule `[2H]C([2H])([2H])NC(=O)c1cnc(Nc2ccc(F)cn2)cc1Nc1cn(C)c2ccn(CC)c(=O)c12` [Example 99, 4-[(5-Ethyl-1-methyl-4-oxo-pyrrolo[3,2-c]pyridin-3-yl)amino]-6-[(5-fluoro-2-pyridyl)amino]-N-(methyl-d3)pyridine-3-carboxamide], in data set [1], the GI50 amounted to 56.7 nM. For the same molecule, the microsomal CLint at 1 μM in data set [2] (setting [3]) came to 33.1 µL/min/mg; in data set [2] (setting [5]), 89.9 µL/min/mg; in data set [2] (setting [7]), 181 µL/min/mg. The half-life at 1 μM is 1.74 h in data set [2] (setting [4]), 0.642 h in data set [2] (setting [6]) and 0.319 h in data set [2] (setting [8]).

On to `[2H]C([2H])([2H])NC(=O)c1cnc(NC(=O)C2CC2)cc1Nc1csc2cnn(CC3CC3(F)F)c(=O)c12` (stereo not shown) [Example 191, 6-(Cyclopropanecarboxamido)-4-((5-((2,2-difluorocyclopropyl)methyl)-4-oxo-4,5-dihydrothieno[2,3-d]pyridazin-3-yl)amino)-N-(methyl-d3)nicotinamide], for which, in data set [1], the GI50 was 1270 nM. Moreover, the microsomal CLint at 1 μM in data set [2] (setting [3]) is less than 11.5 µL/min/mg; in data set [2] (setting [5]), less than 11.5 µL/min/mg; in data set [2] (setting [7]), 13.1 µL/min/mg. Moreover, the values for the half-life at 1 μM in data set [2] (setting [4]), in data set [2] (setting [6]) and in data set [2] (setting [8]) were greater than 2 h, greater than 2 h and 1.77 h, respectively.

As to `[2H]C([2H])([2H])NC(=O)c1cnc(Nc2ccn(C)n2)cc1Nc1cn(C)c2c(C)cn(CC)c(=O)c12` [Example 198, 4-((5-Ethyl-1,7-dimethyl-4-oxo-4,5-dihydro-1H-pyrrolo[3,2-c]pyridin-3-yl)amino)-N-(methyl-d3)-6-((1-methyl-1H-pyrazol-3-yl)amino)nicotinamide], the GI50 in data set [1] is 585 nM. The results for the microsomal CLint at 1 μM in data set [2] (setting [3]), in data set [2] (setting [5]) and in data set [2] (setting [7]) were less than 11.5 µL/min/mg, 26.4 µL/min/mg and 53.8 µL/min/mg, respectively. The half-life at 1 μM in data set [2] (setting [4]) is greater than 2 h; in data set [2] (setting [6]) it was 0.875 h; in data set [2] (setting [8]) it was 0.429 h.

With `[2H]C([2H])([2H])NC(=O)c1cnc2cc1Nc1cc(cc(-c3ncc(F)cn3)c1OC)COCc1nc(ccc1F)N2` [Example 86, 18-Fluoro-11-(5-fluoropyrimidin-2-yl)-10-methoxy-N-(methyl-d3)-15-oxa-2,4,8,21-tetraazatetracyclo[15.3.1.1^{3,7}.1^{9,13}]tricosa-1(20),3,5,7(23),9(22),10,12,17(21),18-nonaene-6-carboxamide], the GI50 in data set [1] was 139 nM. In addition, the microsomal CLint at 1 μM in data set [2] (setting [3]) was 20 µL/min/mg; in data set [2] (setting [5]), less than 11.5 µL/min/mg; in data set [2] (setting [7]), less than 11.5 µL/min/mg. The values for the half-life at 1 μM in data set [2] (setting [4]), in data set [2] (setting [6]) and in data set [2] (setting [8]) were 1.16 h, greater than 2 h and greater than 2 h, respectively.

Regarding `[2H]C([2H])([2H])NC(=O)c1cnc(NC(=O)C2CC2)cc1Nc1csc2c(Cl)cn(C)c(=O)c12` [Example 172, 4-((7-Chloro-5-methyl-4-oxo-4,5-dihydrothieno[3,2-c]pyridin-3-yl)amino)-6-(cyclopropanecarboxamido)-N-(methyl-d3)nicotinamide], in data set [1], the GI50 was determined as 109 nM. Also, the results for the microsomal CLint at 1 μM in data set [2] (setting [3]), in data set [2] (setting [5]) and in data set [2] (setting [7]) were 16.5 µL/min/mg, 57.4 µL/min/mg and 66.5 µL/min/mg, respectively. Moreover, the half-life at 1 μM turned out to be 1.4 h in data set [2] (setting [4]), 0.402 h in data set [2] (setting [6]) and 0.347 h in data set [2] (setting [8]).

As to `[2H]C([2H])([2H])NC(=O)c1cnc(NC(=O)C2CC2)cc1Nc1csc2cnn(C(C)COC)c(=O)c12` (stereo not shown) [Example 182, 6-(Cyclopropanecarboxamido)-4-((5-(1-methoxypropan-2-yl)-4-oxo-4,5-dihydrothieno[2,3-d]pyridazin-3-yl)amino)-N-(methyl-d3)nicotinamide], in data set [1], the GI50 amounted to 491 nM.

As for `[2H]C([2H])([2H])NC(=O)c1cnc(NC(=O)C2CC2)cc1Nc1cn(C)c2ccn(C(C)C(F)(F)F)c(=O)c12` (single isomer, unassigned) [Example 190B, (S*)-6-(Cyclopropanecarboxamido)-N-(methyl-d3)-4-((1-methyl-4-oxo-5-(1,1,1-trifluoropropan-2-yl)-4,5-dihydro-1H-pyrrolo[3,2-c]pyridin-3-yl)amino)nicotinamide], the GI50 in data set [1] was determined as 327 nM.

For `[2H]C([2H])([2H])NC(=O)c1cnc(Nc2cc(F)ccn2)cc1Nc1cn(C)c2c(Cl)cn(CC)c(=O)c12` [Example 162, 4-((7-Chloro-5-ethyl-1-methyl-4-oxo-4,5-dihydro-1H-pyrrolo[3,2-c]pyridin-3-yl)amino)-6-((4-fluoropyridin-2-yl)amino)-N-(methyl-d3)nicotinamide], the GI50 in data set [1] was found to be 25.9 nM.

As for `[2H]C([2H])([2H])NC(=O)c1cnc(NC(=O)C2CC2)cc1Nc1cn(C)c2ccn(C3CCC3)c(=O)c12` [Example 111, 4-((5-Cyclobutyl-1-methyl-4-oxo-4,5-dihydro-1H-pyrrolo[3,2-c]pyridin-3-yl)amino)-6-(cyclopropanecarboxamido)-N-(methyl-d3)nicotinamide], the GI50 in data set [1] came to 154 nM.

Take `[2H]C([2H])([2H])N1Cc2nc(NC(=O)C3CC3)cc(Nc3ccc4cnn(CC)c4c3OC)c2C1=O` [Example 210, N-(4-((1-ethyl-7-methoxy-1H-indazol-6-yl)amino)-6-(methyl-d3)-5-oxo-6,7-dihydro-5H-pyrrolo[3,4-b]pyridin-2-yl)cyclopropanecarboxamide]: in data set [1], the GI50 is greater than 5000 nM.

With `[2H]C([2H])([2H])NC(=O)c1cnc(Nc2ccc(F)cc2)nc1Nc1cn(C)c2ccn(C)c(=O)c12` [Example 4, 4-((1,5-Dimethyl-4-oxo-4,5-dihydro-1H-pyrrolo[3,2-c]pyridin-3-yl)amino)-2-((4-fluorophenyl)amino)-N-(methyl-d3)pyrimidine-5-carboxamide], the GI50 in data set [1] came out at 548 nM.

In the case of `CCN1C(=O)C(F)(F)c2ccc(Nc3cc(NC(=O)C4CC4)ncc3C(=O)NC)c(OC)c21` [Example 204, 6-(Cyclopropanecarboxamido)-4-((1-ethyl-3,3-difluoro-7-methoxy-2-oxoindolin-6-yl)amino)-N-methylnicotinamide], the GI50 in data set [1] turned out to be 327 nM.

For the molecule `[2H]C([2H])([2H])NC(=O)c1cnc(NC(=O)C2CC2)cc1Nc1ccc2cnn(C3CCOCC3)c2c1OC` [Example 127, 6-(Cyclopropanecarboxamido)-4-((7-methoxy-1-(tetrahydro-2H-pyran-4-yl)-1H-indazol-6-yl)amino)-N-(methyl-d3)nicotinamide], the GI50 in data set [1] is 378 nM.

As for `[2H]C([2H])([2H])NC(=O)c1cnc(NC(=O)C2CC2)cc1Nc1cn(C)c2ccn(-c3cnn(C)c3)c(=O)c12` [Example 120, 6-(Cyclopropanecarboxamido)-N-(methyl-d3)-4-((1-methyl-5-(1-methyl-1H-pyrazol-4-yl)-4-oxo-4,5-dihydro-1H-pyrrolo[3,2-c]pyridin-3-yl)amino)nicotinamide], the GI50 in data set [1] is 1120 nM.
